Data from paper PMC12444472, “BCI inhibits MKP3 by targeting the kinase-binding domain and disrupting ERK2 interaction” (The Journal of Biological Chemistry, 2025).

Key:
MKP3 = details: basal, without ERK2; cited from earlier work
[1] = target: T1, Full-length human MKP3, MKP3(1-381) (human) (UniProt Q16828)
T1 sequence: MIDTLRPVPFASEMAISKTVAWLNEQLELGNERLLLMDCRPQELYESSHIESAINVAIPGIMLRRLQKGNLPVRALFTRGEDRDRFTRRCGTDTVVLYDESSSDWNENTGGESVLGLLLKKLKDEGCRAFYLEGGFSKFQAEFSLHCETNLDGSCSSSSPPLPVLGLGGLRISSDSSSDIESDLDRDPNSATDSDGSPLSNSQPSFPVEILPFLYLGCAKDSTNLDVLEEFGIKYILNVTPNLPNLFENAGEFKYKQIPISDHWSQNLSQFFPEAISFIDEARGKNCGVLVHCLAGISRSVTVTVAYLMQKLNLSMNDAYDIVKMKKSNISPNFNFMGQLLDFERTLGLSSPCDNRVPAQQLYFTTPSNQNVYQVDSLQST

| time of pERK2 dephosphorylation by MKP3^FL with BCI at a concentration 50 times that of pERK2 [1] [fold] | Molecule | effect on MKP3's basal activity toward OMFP (MKP3) |
| --- | --- | --- |
| – | O=C1C(SCCO)=C(SCCO)C(=O)c2ccccc21 [NSC95397] | inhibited |
| > 20 | Phosphorylated ERK2 (bis-pERK2, phosphorylated at T183 and Y185) (from UniProt P63085 1-358) (enzyme) | – |
